Reference: patent US7655655B1, “Method for facilitating extinction training using D-cycloserine” (priority 2009, dated 2010)
Read-outs that look alike come from different tables or passages of the source.

How the values were obtained:
Sprague Dawley rats = experiment: Extinction of fear-potentiated startle in rats with post-extinction training pre-sleep administration; type: in vivo, rat; details: higher values signify greater extinction
Procedure: Subjects. Twenty male, Sprague Dawley rats (300-350 grams) were used. Rats were placed in cages used to measure the acoustic startle reflex (Cassella, J. V., and Davis, M. “The design and calibration of a startle measurement system”, Physiology & Behavior (1986), 36, pp. 377-383) and, after a 5 minute acclimation period, presented with 50 startle stimuli (50-ms duration, 5-ms rise-decay time), 10 at each of five intensities (95, 100, 105, 110, and 115 dB) in a semi-random order at a 30-s interstimulus interval. The animals were subsequently divided into four groups of five rats, each having similar mean startle amplitudes across the 10 stimuli at the five intensities.
Fear conditioning and testing. On two consecutive training days, animals were placed in the startle chambers and after a 5-min acclimation period, presented with 10 light shock pairings. The shock was presented during the last 500 ms of the 3,700-ms light at an average intertrial interval of 3 minutes (range, 2-4 min). No further shocks were presented thereafter. Twenty-four hours after the second training day, rats were placed in the startle chamber and presented with 30 95-dB startle stimuli (leaders), followed by the first of 10 startle stimuli presented 3.2 seconds after onset of the light that had previously been paired with a shock, and 10 more startle stimuli alone. The two trial types (light-startle and startle-alone) were presented in an irregular balanced order at a 30-s interstimulus interval. Based on the mean difference in startle amplitude between the mean startle amplitude across the last 10 leaders and the mean startle amplitude across the light-startle trials, a percent fear-potentiated startle was computed as: [(mean difference in startle amplitude between the light-startle and leaders)/mean leaders]×100. The rats were divided into four groups.
Extinction training with or without sleep deprivation. […] Although sleep was not measured directly, the rats were observed on closed-circuit TV and appeared to sleep (rats tend to sleep in the day, when the lights are on). […]

[1] = system: Mycobacterium tuberculosis strains; details: typical Mycobacterium tuberculosis strains; cited from earlier work
rats = details: cited from earlier work
subjects with acrophobia = details: DCS administered prior to virtual reality therapy sessions, versus placebo; cited from earlier work
[2] = cited from earlier work
[3] = system: subjects chronically ill with tuberculosis; details: chronic dosing schedules, typical tuberculosis doses 500-1000 mg/day; cited from earlier work

## N[C@@H]1CON=C1O [DCS, D-cycloserine]
Sprague Dawley rats; DCS-DCS group: 15 mg/kg DCS i.p. 15 min before extinction training and again pre-sleep 4 h after training, n=3
  mean change in percent fear-potentiated startle prior to and after extinction training: 176%
Sprague Dawley rats; DCS-Sal group: 15 mg/kg DCS i.p. 15 min before extinction training, saline pre-sleep 4 h after training, n=3
  mean change in percent fear-potentiated startle prior to and after extinction training: 78%
Sprague Dawley rats; Sal-DCS group: saline i.p. 15 min before extinction training, 15 mg/kg DCS i.p. pre-sleep 4 h after training, n=4
  mean change in percent fear-potentiated startle prior to and after extinction training: 164%
[1]
  minimum inhibitory concentrations (MIC) in vitro: 6 to 25 µg/mL
rats; DCS injected after extinction training
  effect on extinction learning: facilitated extinction learning
rats; delay between extinction training and administration of DCS increased to four hours
  effect on extinction learning: no significant facilitatory effect
Subjects with acrophobia
  number of therapy sessions required to reach a defined clinical endpoint: significant reduction
[2]; child subject, sub-antimicrobial dose less than or equal to 2 mg/kg
  peak serum concentrations: less than or equal to 5 μg/mL
[2]; dose of 500 mg/day, chronic treatment of tuberculosis
  serum concentrations generally maintained: 25000 to 30000 ng/mL
[2]; known oral capsules
  time of peak serum concentrations after dosing: 3 to 8 h
[2]; sub-antimicrobial dose, less than or equal to 2 mg/kg, substantial variability between subjects
  peak serum concentrations: less than or equal to 5 μg/mL
[3]
  recorded side effects: drowsiness, depression, headache, confusion, tremor, vertigo, and memory difficulties, paresthesias, and seizure
